Source: patent publication US7273863B1, “Benzophenones as inhibitors of reverse transcriptase” (SmithKline Beecham Corporation, priority 1999, dated 2007)

How the values were obtained:
Format in all cases: cell-based
HIV-1 (strain IIIB) = experiment: MT4 cell assay, antiviral HIV activity (propidium iodide); details: Human immunodeficiency virus 1, IIIB; Virus Type HIV-1; Assay MT4; read-out: IC50 (nM) Range
Protocol: Antiviral HIV activity and compound-induced cytotoxicity were measured in parallel by means of a propidium iodide based procedure in the human T-cell lymphotropic virus transformed cell line MT4. Aliquots of the test compounds were serially diluted in medium (RPMI 1640, 10% fetal calf serum (FCS), and gentamycin) in 96-well plates (Costar 3598) using a Cetus Pro/Pette. Exponentially growing MT4 cells were harvested and centrifuged at 1000 rpm for 10 min in a Jouan centrifuge (model CR 4 12). Cell pellets were resuspended in fresh medium (RPMI 1640, 20% FCS, 20% IL-2, and gentamycin) to a density of 5×10^5 cells/ml. Cell aliquots were infected by the addition of HIV-1 (strain IIIB) diluted to give a viral multiplicity of infection of 100×TCID50. A similar cell aliquot was diluted with medium to provide a mock-infected control. Cell infection was allowed to proceed for 1 hr at 37° C. in a tissue culture incubator with humidified 5% CO2 atmosphere. After the 1 hr incubation the virus/cell suspensions were diluted 6-fold with fresh medium, and 125 μl of the cell suspension was added to each well of the plate containing pre-diluted compound. Plates were then placed in a tissue culture incubator with humidified 5% CO2 for 5 days. At the end of the incubation period, 27 μl of 5% Nonidet-40 was added to each well of the incubation plate. After thorough mixing with a Costar multitip pipetter, 60 μl of the mixture was transferred to filter-bottomed 96-well plates. The plates were analyzed in an automated assay instrument (Screen Machine, Idexx Laboratories). The control and standard used was 3′-azido-3′-deoxythymidine tested over a concentration range of 0.01 to 1 μM in every assay. […] The assay-makes use of a propidium iodide dye to estimate the DNA content of each well.
The antiviral effect of a test compound is reported as an IC50, i.e. the inhibitory concentration that would produce a 50% decrease in the HIV-induced cytopathic effect. This effect is measured by the amount of test compound required to restore 50% of the cell growth of HIV-infected MT4 cells, compared to uninfected MT4 cell controls. IC50 was calculated by RoboSage, Automated Curve Fitting Program, version 5.00, 10 Jul. 1995.
For each assay plate, the results (relative fluorescence units, rfU) of wells containing uninfected cells or infected cells with no compound were averaged, respectively. For measurements of compound-induced cytotoxicty, results from wells containing various compound concentrations and uninfected cells were compared to the average of uninfected cells without compound treatment. Percent of cells remaining is determined by the following formula: Percent of cells remaining=(compound−treated uninfected cells, rfU/untreated uninfected cells)×100.
A level of percent of cells remaining of 79% or less indicates a significant level of direct compound-induced cytotoxicity for the compound at that concentration. When this condition occurs the results from the compound-treated infected wells at this concentration are not included in the calculation of IC50.
For measurements of compound antiviral activity, results from wells containing various compound concentrations and infected cells are compared to the average of uninfected and infected cells without compound treatment. Percent inhibition of virus is determined by the following formula: Percent inhibition of virus=(1−((ave. untreated uninfected cells−treated infected cells)/(ave. untreated uninfected cells−ave. untreated infected cells)))×100

[1] = test system: isogenic HIV-1 RT mutant virus V106A; experiment: HeLa cell assay (HIV-LTR β-galactosidase reporter); details: Human immunodeficiency virus 1, HeLa, read-out: IC50 (nM) Range
In short: (§1)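 HeLa-CD4-LTR-β-gal cells, seeded overnight, were infected with isogenic recombinant HXB2 RT-mutant virus (50 to 70 total RLUs per well, DEAE-dextran) for 1.5 to 2 hours. Five-fold compound titrations (2 μM to 1 pM final, 0.1% DMSO) followed, with 72 h at 37° C. IC50 is chemiluminescent β-gal signal inhibition versus untreated controls.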

[2] = test system: isogenic HIV-1 RT mutant virus K101E; experiment: HeLa cell assay (HIV-LTR β-galactosidase reporter); details: Human immunodeficiency virus 1, HeLa, read-out: IC50 (nM) Range
In short: as §1

## Cc1cc(C#N)cc(C(=O)c2cc(Cl)ccc2OCC(=O)Nc2cnc(S(N)(=O)=O)cc2C)c1 [Compound 587]
HIV-1 (strain IIIB)
  IC50: < 10 nM

## Cc1cc(S(N)(=O)=O)ccc1NC(=O)COc1ccc(Cl)cc1C(=O)c1cc(F)cc(C(F)(F)F)c1 [Compound 78]
[1]
  IC50: 11 to 100 nM
[2]
  IC50: < 10 nM
HIV-1 (strain IIIB)
  IC50: < 10 nM

## Cc1cc2cn[nH]c2cc1NC(=O)COc1ccc(Cl)cc1C(=O)c1cccc(C#N)c1 [Compound 453]
[1]
  IC50: 101 to 1000 nM
[2]
  IC50: < 10 nM
HIV-1 (strain IIIB)
  IC50: < 10 nM

## Cc1cc(C)cc(C(=O)c2cc(Cl)ccc2OCC(=O)Nc2ccc(S(N)(=O)=O)cc2C)c1 [Compound 478]
HIV-1 (strain IIIB)
  IC50: < 10 nM

## Cc1cc(S(N)(=O)=O)ccc1NC(=O)COc1ccc(Cl)cc1C(=O)c1cc(F)cc(F)c1 [Compound 62]
[1]
  IC50: 11 to 100 nM
[2]
  IC50: < 10 nM
HIV-1 (strain IIIB)
  IC50: < 10 nM

## Cc1cc(C#N)cc(C(=O)c2cc(Cl)ccc2OCC(=O)Nc2ccc(S(N)(=O)=O)nc2C)c1 [Compound 503]
HIV-1 (strain IIIB)
  IC50: < 10 nM

## Cc1cc(C#N)cc(C(=O)c2cc(Cl)ccc2OCC(=O)Nc2ccc(S(N)(=O)=O)cc2C)c1 [Compound 564]
HIV-1 (strain IIIB)
  IC50: < 10 nM

## Cc1cc(C#N)cc(C(=O)c2cc(Cl)ccc2OCC(=O)Nc2ccc(OCCCN3CC=CC3)cc2C)c1 [Compound 593]
HIV-1 (strain IIIB)
  IC50: < 10 nM

## Cc1cc(OCCCS(N)(=O)=O)ccc1NC(=O)COc1ccc(Cl)cc1C(=O)c1cc(F)cc(C(F)(F)F)c1 [Compound 257]
[1]
  IC50: 11 to 100 nM
[2]
  IC50: < 10 nM
HIV-1 (strain IIIB)
  IC50: < 10 nM

## CCc1cc(C#N)cc(C(=O)c2cc(Cl)ccc2OCC(=O)Nc2ccc(S(N)(=O)=O)cc2C)c1 [Compound 498]
HIV-1 (strain IIIB)
  IC50: < 10 nM

## Cc1cc(S(N)(=O)=O)ccc1NC(=O)COc1ccc(Cl)cc1C(=O)c1cccc(C#N)c1 [Compound 448]
[1]
  IC50: 11 to 100 nM
[2]
  IC50: < 10 nM
HIV-1 (strain IIIB)
  IC50: < 10 nM

## Cc1cc(S(N)(=O)=O)ccc1NC(=O)COc1ccc(Cl)cc1C(=O)c1cccc(C#N)n1 [Compound 637]
HIV-1 (strain IIIB)
  IC50: < 10 nM

## Cc1cc(S(N)(=O)=O)ccc1NC(=O)COc1ccc(Cl)cc1C(=O)c1cc(Cl)cc(C#N)c1 [Compound 475]
HIV-1 (strain IIIB)
  IC50: < 10 nM

## Cc1cc(S(N)(=O)=O)ccc1NC(=O)COc1ccc(Cl)cc1C(=O)c1cc(F)cc(C#N)c1 [Compound 491]
HIV-1 (strain IIIB)
  IC50: < 10 nM

## Cc1cc2nc[nH]c2cc1NC(=O)COc1ccc(Cl)cc1C(=O)c1cc(F)cc(C(F)(F)F)c1 [Compound 239]
[1]
  IC50: 11 to 100 nM
[2]
  IC50: < 10 nM
HIV-1 (strain IIIB)
  IC50: < 10 nM
